The experiment deals with T1, SIRT1 (Homo sapiens, UniProt Q96EB6).
T1 sequence (Q96EB6 1-747): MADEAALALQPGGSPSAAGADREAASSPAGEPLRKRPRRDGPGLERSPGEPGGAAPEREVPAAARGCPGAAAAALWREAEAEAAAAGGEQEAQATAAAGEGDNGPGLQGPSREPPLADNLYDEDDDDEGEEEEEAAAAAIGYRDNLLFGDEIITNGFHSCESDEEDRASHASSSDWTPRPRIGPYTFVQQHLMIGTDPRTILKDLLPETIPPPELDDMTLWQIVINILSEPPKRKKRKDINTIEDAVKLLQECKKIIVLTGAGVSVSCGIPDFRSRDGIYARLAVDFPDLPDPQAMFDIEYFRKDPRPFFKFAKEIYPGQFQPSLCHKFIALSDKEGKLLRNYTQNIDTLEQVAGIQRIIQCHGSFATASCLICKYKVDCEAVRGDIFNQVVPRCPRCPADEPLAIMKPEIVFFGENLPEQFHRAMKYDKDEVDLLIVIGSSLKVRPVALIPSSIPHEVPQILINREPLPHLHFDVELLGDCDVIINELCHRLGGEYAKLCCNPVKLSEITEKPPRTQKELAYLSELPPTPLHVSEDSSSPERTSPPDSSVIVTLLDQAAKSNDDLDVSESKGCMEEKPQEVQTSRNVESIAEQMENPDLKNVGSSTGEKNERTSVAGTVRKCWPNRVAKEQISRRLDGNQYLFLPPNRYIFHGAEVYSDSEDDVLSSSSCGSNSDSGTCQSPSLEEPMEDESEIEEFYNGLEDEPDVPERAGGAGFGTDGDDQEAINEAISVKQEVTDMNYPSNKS
The experiment is described as follows: Trp mass spectrometry assay of SIRT1 activation (Ac-R-H-K-K(Ac)-W-NH2 peptide). The conditions noted are these: for Emax: 25 min, read-out: TRP MAX RESP (percent maximum fold activation). Type of experiment: biochemical. The essentials:
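N-terminal His-tagged human SIRT1, expressed in BL21(DE3) and purified, was incubated 25 min with an acetylated Trp peptide and NAD plus test compound at varying concentrations, then quenched with formic acid. OAADPR or deacetylated peptide was quantified by mass spectrometry versus compound-free control; EC1.5 is the concentration giving 50% activity increase, with percent maximum activation.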

[1] abbreviates: Trp peptide 0.5 μM, 120 μM βNAD+, 10 nM SIRT1, 25 min at 25° C., relative to control (100%).
Setting [2] is: Trp peptide 0.5 μM, 120 μM βNAD+, 10 nM SIRT1, 25 min at 25° C.

Like-named read-outs stand apart in the source and are kept apart here.

Take `C[C@@H](NC(=O)c1ccc2c(n1)N(C(=O)Nc1cc(C(=O)NCCO)ccn1)[C@H]1CCN2C1)C(F)(F)F` [Example 131, (4S)—N5-(4-((2-hydroxyethyl)carbamoyl)pyridin-2-yl)-N7-((R)-1,1,1-trifluoropropan-2-yl)-3,4-dihydro-1,4-methanopyrido[2,3-b][1,4]diazepine-5,7(2H)-dicarboxamide]: the Emax under setting [1] was > 150%. Also, under setting [2], the “TRP Activity (EC1.5, concentration of test compound that results in 150% activation of SIRT1)” value is recorded as “A (EC1.5<1 μM)”.

Regarding `COc1cc(NC(=O)N2c3nc(C(=O)NCC4CC4)ccc3N3CC[C@H]2C3)ncn1` [Example 113, (4S)—N7-(cyclopropylmethyl)-N5-(6-methoxypyrimidin-4-yl)-3,4-dihydro-1,4-methanopyrido[2,3-b][1,4]diazepine-5,7(2H)-dicarboxamide], the Emax under setting [1] was > 150%. The “TRP Activity (EC1.5, concentration of test compound that results in 150% activation of SIRT1)” value under setting [2] is recorded as “B (EC1.5 1-25 μM)”.

On to `C[C@@H](NC(=O)c1ccc2c(n1)N(C(=O)Nc1cc(-c3ccn(C)n3)ccn1)[C@H]1CCN2C1)C(F)(F)F` [Example 85, (4S)—N5-(4-(1-methyl-1H-pyrazol-3-yl)pyridin-2-yl)-N7-((R)-1,1,1-trifluoropropan-2-yl)-3,4-dihydro-1,4-methanopyrido[2,3-b][1,4]diazepine-5,7(2H)-dicarboxamide], for which the Emax under setting [1] is > 150%. Moreover, under setting [2], the “TRP Activity (EC1.5, concentration of test compound that results in 150% activation of SIRT1)” value is reported as “A (EC1.5<1 μM)”.

Consider `COc1ccnc(NC(=O)N2c3nc(C(=O)N[C@H](C)C(F)(F)F)ccc3N3CC[C@H]2C3)c1` [Example 135, (4S)—N5-(4-methoxypyridin-2-yl)-N7-((R)-1,1,1-trifluoropropan-2-yl)-3,4-dihydro-1,4-methanopyrido[2,3-b][1,4]diazepine-5,7(2H)-dicarboxamide], for which the Emax under setting [1] is > 150%. For the same compound, the “TRP Activity (EC1.5, concentration of test compound that results in 150% activation of SIRT1)” value under setting [2] is reported as “A (EC1.5<1 μM)”.

Consider `O=C(NCC(F)(F)F)c1ccc2c(n1)N(C(=O)Nc1ncc3[nH]ccc3n1)[C@H]1CCN2C1` [Example 140, (4S)—N5-(5H-pyrrolo[3,2-d]pyrimidin-2-yl)-N7-(2,2,2-trifluoroethyl)-3,4-dihydro-1,4-methanopyrido[2,3-b][1,4]diazepine-5,7(2H)-dicarboxamide], for which the Emax is > 150%. Further, under setting [2], the “TRP Activity (EC1.5, concentration of test compound that results in 150% activation of SIRT1)” value is reported as “A (EC1.5<1 μM)”.

For the compound `Cn1ccc(=O)c(NC(=O)N2c3nc(C(=O)NCC(F)(F)F)ccc3N3CC[C@H]2C3)c1` [Example 185, (4S)—N5-(1-methyl-4-oxo-1,4-dihydropyridin-3-yl)-N7-(2,2,2-trifluoroethyl)-3,4-dihydro-1,4-methanopyrido[2,3-b][1,4]diazepine-5,7(2H)-dicarboxamide], the Emax is > 150%. Moreover, under setting [2], the “TRP Activity (EC1.5, concentration of test compound that results in 150% activation of SIRT1)” value was “A (EC1.5<1 μM)”.

Consider `O=C(NCC(F)(F)F)c1ccc2c(n1)N(C(=O)Nc1cnc(OC[C@@H](O)CO)cn1)[C@H]1CCN2C1` [Example 118, (4S)—N5-(5-((S)-2,3-dihydroxypropoxy)pyrazin-2-yl)-N7-(2,2,2-trifluoroethyl)-3,4-dihydro-1,4-methanopyrido[2,3-b][1,4]diazepine-5,7(2H)-dicarboxamide], for which the Emax under setting [1] was > 150%. Besides, the “TRP Activity (EC1.5, concentration of test compound that results in 150% activation of SIRT1)” value under setting [2] is “B (EC1.5 1-25 μM)”.

For `C[C@@H](NC(=O)c1ccc2c(n1)N(C(=O)Nc1cc(C(=O)N[C@H]3CCOC3)ccn1)[C@H]1CCN2C1)C(F)(F)F` [Example 264, (4S)—N5-(4-(((S)-tetrahydrofuran-3-yl)carbamoyl)pyridin-2-yl)-N7-((R)-1,1,1-trifluoropropan-2-yl)-3,4-dihydro-1,4-methanopyrido[2,3-b][1,4]diazepine-5,7(2H)-dicarboxamide], the Emax under setting [1] is < 150%. The “TRP Activity (EC1.5, concentration of test compound that results in 150% activation of SIRT1)” value under setting [2] is reported as “C (EC1.5>25 μM)”.

With `O=C(NC1(C(F)(F)F)CC1)c1ccc2c(n1)N(C(=O)Nc1ccccn1)[C@H]1CCN2C1` [Example 241, (4S)—N5-(pyridin-2-yl)-N7-(1-(trifluoromethyl)cyclopropyl)-3,4-dihydro-1,4-methanopyrido[2,3-b][1,4]diazepine-5,7(2H)-dicarboxamide], the Emax under setting [1] is > 150%. Under setting [2], the “TRP Activity (EC1.5, concentration of test compound that results in 150% activation of SIRT1)” value is “A (EC1.5<1 μM)”.

On to `C#CC(C)(C)NC(=O)c1ccc2c(n1)N(C(=O)Nc1ccccn1)[C@H]1CCN2C1` [Example 253, (4S)—N7-(2-methylbut-3-yn-2-yl)-N5-(pyridin-2-yl)-3,4-dihydro-1,4-methanopyrido[2,3-b][1,4]diazepine-5,7(2H)-dicarboxamide], for which the Emax under setting [1] is > 150%. The “TRP Activity (EC1.5, concentration of test compound that results in 150% activation of SIRT1)” value under setting [2] is “B (EC1.5 1-25 μM)”.

Take `Cc1cc2c(nc1C(=O)N[C@H](C)C(F)(F)F)N(C(=O)Nc1cc(OC[C@H](O)CO)ccn1)[C@H]1CCN2C1` [Example 291, (4S)—N5-(4-((R)-2,3-dihydroxypropoxy)pyridin-2-yl)-8-methyl-N7-((R)-1,1,1-trifluoropropan-2-yl)-3,4-dihydro-1,4-methanopyrido[2,3-b][1,4]diazepine-5,7(2H)-dicarboxamide]: the Emax under setting [1] is < 150%. Also, under setting [2], the “TRP Activity (EC1.5, concentration of test compound that results in 150% activation of SIRT1)” value was “A (EC1.5<1 μM)”.

For `Cc1cnnc(NC(=O)N2c3nc(C(=O)N[C@H](C)C(F)(F)F)ccc3N3CC[C@H]2C3)c1` [Example 300, (4S)—N5-(5-methylpyridazin-3-yl)-N7-((R)-1,1,1-trifluoropropan-2-yl)-3,4-dihydro-1,4-methanopyrido[2,3-b][1,4]diazepine-5,7(2H)-dicarboxamide], the Emax under setting [1] is < 150%. In addition, the “TRP Activity (EC1.5, concentration of test compound that results in 150% activation of SIRT1)” value under setting [2] is listed as “A (EC1.5<1 μM)”.

With `O=C(NC1CC1(F)F)c1ccc2c(n1)N(C(=O)Nc1cc(OCCO)ccn1)[C@H]1CCN2C1` (single isomer, unassigned) [Example 262], under setting [1], the Emax was > 150%. Besides, under setting [2], the “TRP Activity (EC1.5, concentration of test compound that results in 150% activation of SIRT1)” value is “A (EC1.5<1 μM)”.

As to `CC(C#N)NC(=O)c1ccc2c(n1)N(C(=O)Nc1ccccn1)[C@H]1CCN2C1` (single isomer, unassigned) [Example 102], the Emax under setting [1] is > 150%. Also, the “TRP Activity (EC1.5, concentration of test compound that results in 150% activation of SIRT1)” value under setting [2] was “A (EC1.5<1 μM)”.

For the compound `O=C(NCC(F)(F)F)c1ccc2c(n1)N(C(=O)Nc1ccc(C3CC3)cn1)[C@H]1CCN2C1` [Example 174, (4S)—N5-(5-cyclopropylpyridin-2-yl)-N7-(2,2,2-trifluoroethyl)-3,4-dihydro-1,4-methanopyrido[2,3-b][1,4]diazepine-5,7(2H)-dicarboxamide], the Emax under setting [1] is > 150%. For the same compound, the “TRP Activity (EC1.5, concentration of test compound that results in 150% activation of SIRT1)” value under setting [2] is “A (EC1.5<1 μM)”.

On to `CONC(=O)c1ccc2c(n1)N(C(=O)Nc1ccccn1)[C@H]1CCN2C1` [Example 228, (4S)—N7-methoxy-N5-(pyridin-2-yl)-3,4-dihydro-1,4-methanopyrido[2,3-b][1,4]diazepine-5,7(2H)-dicarboxamide], for which, under setting [1], the Emax is > 150%. Further, the “TRP Activity (EC1.5, concentration of test compound that results in 150% activation of SIRT1)” value under setting [2] was “B (EC1.5 1-25 μM)”.

For `CC(=O)Nc1ccnc(NC(=O)N2c3nc(C(=O)N[C@H](C)C(F)(F)F)ccc3N3CC[C@H]2C3)c1` [Example 320, (4S)—N5-(4-acetamidopyridin-2-yl)-N7-((R)-1,1,1-trifluoropropan-2-yl)-3,4-dihydro-1,4-methanopyrido[2,3-b][1,4]diazepine-5,7(2H)-dicarboxamide], the Emax under setting [1] is < 150%. Under setting [2], the “TRP Activity (EC1.5, concentration of test compound that results in 150% activation of SIRT1)” value was “A (EC1.5<1 μM)”.

Consider `CC(F)(F)CNC(=O)c1ccc2c(n1)N(C(=O)Nc1ccccn1)[C@H]1CCN2C1` [Example 47, (4S)—N7-(2,2-difluoropropyl)-N5-(pyridin-2-yl)-3,4-dihydro-1,4-methanopyrido[2,3-b][1,4]diazepine-5,7(2H)-dicarboxamide], for which the Emax under setting [1] is > 150%. Besides, under setting [2], the “TRP Activity (EC1.5, concentration of test compound that results in 150% activation of SIRT1)” value is on record as “A (EC1.5<1 μM)”.

In the case of `NC(CNC(=O)c1ccc2c(n1)N(C(=O)Nc1cc(OC[C@H](O)CO)ccn1)[C@H]1CCN2C1)C(F)(F)F` (single isomer, unassigned) [Example 196], the Emax under setting [1] is > 150%. Under setting [2], the “TRP Activity (EC1.5, concentration of test compound that results in 150% activation of SIRT1)” value is on record as “B (EC1.5 1-25 μM)”.

As for `C#C[C@@H](C)NC(=O)c1ccc2c(n1)N(C(=O)Nc1ccccn1)[C@H]1CCN2C1` [Example 105, (4S)—N7-((R)-but-3-yn-2-yl)-N5-(pyridin-2-yl)-3,4-dihydro-1,4-methanopyrido[2,3-b][1,4]diazepine-5,7(2H)-dicarboxamide], under setting [1], the Emax is > 150%. For the same compound, the “TRP Activity (EC1.5, concentration of test compound that results in 150% activation of SIRT1)” value under setting [2] is recorded as “A (EC1.5<1 μM)”.

Values taken from patent US10072011B2, “Substituted bridged urea analogs as sirtuin modulators” (GlaxoSmithKline Intellectual Property (No.2) Limited, priority 2014, dated 2018).
